Measurements from patent US8778912B2, “Composition of dialysis liquid comprising crystallisation inhibitor substances” (Universitat de les Illes Balears, priority 2008, dated 2014).

Key:
[1] = Dialysis of artificial plasma with 5 mM etidronate against dialysing liquid without etidronate; assay type: in vitro ADME; details: after a 20-hour period, pH 7.4
Procedure: An artificial plasma was prepared with 5 mM of etidronate, regulating the ionic strength with 0.15 M NaCl. 25 ml of this solution were dialysed for 20 hours against a 1-l volume of a 0.15 M NaCl solution without etidronate (dialysing liquid model). The pH of both solutions was adjusted to 7.4 using bicarbonate buffer.
(§1) 5-ml aliquots of the dialysing liquid were collected at times 0, 1, 3, 6 and 20 hours, and the quantity of etidronate was determined in each of them. Moreover, the concentration of etidronate in the artificial plasma was determined at times 0 and 20 hours.

[2] = Dialysis of artificial plasma with 5 mM etidronate against dialysing liquid with the same concentration of etidronate; assay type: in vitro ADME; details: 20 hours dialysis; 5 mM etidronate in both plasma and dialysing liquid, pH 7.4
Procedure: An artificial plasma was prepared with 5 mM of etidronate, regulating the ionic strength with 0.15 M NaCl. 25 ml of this solution were dialysed for 20 hours against a 1-l volume of a 0.15 M NaCl solution with the same concentration of etidronate as the plasma. The pH of both solutions was adjusted to 7.4 using bicarbonate buffer.
as §1

[3] = Dialysis of artificial plasma with 1 mM etidronate against dialysing liquid with 5 times greater etidronate concentration; assay type: in vitro ADME
Procedure: An artificial plasma was prepared with 1 mM of etidronate, regulating the ionic strength with 0.15 M NaCl. 25 ml of this solution were dialysed for 20 hours against a 1-l volume of a 0.15 M NaCl solution with a concentration of etidronate 5 times greater than that of the plasma. The pH of both solutions was adjusted to 7.4 using bicarbonate buffer.
as §1

[4] = Dialysis of artificial plasma with 1.5 mM phytate against dialysing liquid without phytate; assay type: in vitro ADME; details: after a 20-hour period, pH 7.4
Procedure: An artificial plasma (liquid with a composition similar to that of plasma) was prepared with 1.5 mM phytate, regulating the ionic strength with 0.15 M NaCl. 25 ml of this solution were dialysed for 20 hours against a 1-l volume of a 0.15 M NaCl solution without phytate (dialysing liquid model). The pH of both solutions was adjusted to 7.4 using bicarbonate buffer. 5-ml aliquots of the dialysing liquid were collected at times 0, 1, 3, 6 and 20 hours, and the quantity of phytate in each of them was determined. Moreover, the concentration of phytate in the artificial plasma was determined at times 0 and 20 hours.

[5] = Dialysis of artificial plasma with 1.5 mM phytate against dialysing liquid with the same concentration of phytate; assay type: in vitro ADME; details: 20 hours dialysis; 1.5 mM phytate in both plasma and dialysing liquid, pH 7.4
Procedure: An artificial plasma was prepared with 1.5 mM of phytate, regulating the ionic strength with 0.15 M NaCl. 25 ml of this solution were dialysed for 20 hours against a 1-l volume of a 0.15 M NaCl solution with the same concentration of phytate as the plasma. The pH of both solutions was adjusted to 7.4 using bicarbonate buffer. 5-ml aliquots of the dialysing liquid were collected at times 0, 1, 3, 6 and 20 hours, and the quantity of phytate was determined in each of them. Moreover, the concentration of phytate in the artificial plasma was determined at times 0 and 20 hours.

[6] = Dialysis of artificial plasma with 300 μM phytate against dialysing liquid with 5 times greater phytate concentration; assay type: in vitro ADME
Procedure: An artificial plasma was prepared with 300 μM of phytate, regulating the ionic strength with 0.15 M NaCl. 25 ml of this solution were dialysed for 20 hours against a 1-l volume of a 0.15 M NaCl solution with a concentration of phytate 5 times greater than that of the plasma. The pH of both solutions was adjusted to 7.4 using bicarbonate buffer. 5-ml aliquots of the dialysing liquid were collected at times 0, 1, 3, 6 and 20 hours, and the quantity of phytate was determined in each of them. Moreover, the concentration of phytate in the artificial plasma was determined at times 0 and 20 hours.

[7] = Intravenous administration to rats on a diet without phytate; urinary and plasma phytate; assay type: in vivo, male Wistar rats; details: treated group, 3 intravenous doses of 0.61 mmol/kg (400 mg/kg) 12 hours apart
Procedure: 6 male Wistar rats approximately 250 g in weight were acclimated from 7 dias in the animal house (T=[…] and humidity=60±5%) with 12:12-hour light-darkness cycles. The rats were housed in Plexiglas cages, with one animal per cage, and fed with food and drink ad libitum.
Following the acclimation period, the animals were randomly divided into two groups with 3 rats each, a control group (with a diet without phytate, thereby simulating a post-dialysis physiological condition) and a treated group, which received 3 intravenous doses of 0.61 mmol/kg (400 mg/kg) separated by 12-hour periods. Following the last administration, 24-hour urine samples were collected in order to determine the phytate and, subsequently, the animals were anaesthesised and blood samples were collected.
The procedures used in this experiment were performed in accordance with Directive 86/609/EEC regarding the protection of animals used for experimental and scientific purposes.

## CC(O)(P(=O)(O)O)P(=O)(O)O [etidronate, etidronic acid]
[1]
  quantity of etidronate in the dialysis solution, as share of the initial quantity in the artificial plasma: 95.6%
[2]
  variation in the concentration of etidronate in the plasma and the dialysing liquid: no variations
[3]; 20-hour period, dialysis liquid with etidronate concentration greater than that of the plasma
  change of plasma concentration of etidronate (in words): increase the plasma concentration
[3]; 20 hours dialysis, plasma 1 mM etidronate, dialysis liquid 5 times greater, pH 7.4
  etidronate from the dialysis liquid that enters into the artificial plasma: up to 1.65%
[3]; 20 hours dialysis, plasma 1 mM etidronate, dialysis liquid 5 times greater, from ratio of initial volumes and concentrations
  increase of the concentration of etidronate in the artificial plasma: 330%

## O=P(O)(O)O[C@H]1[C@H](OP(=O)(O)O)[C@@H](OP(=O)(O)O)[C@H](OP(=O)(O)O)[C@@H](OP(=O)(O)O)[C@H]1OP(=O)(O)O [phytate, myo-inositol hexaphosphate]
[4]
  quantity of phytate in the dialysis solution, as share of the initial quantity in the artificial plasma: 40%
[5]
  variation in the concentration of phytate in the plasma and the dialysing liquid: no variations
[6]; 20-hour period, dialysis liquid with phytate concentration greater than that of the plasma
  change of plasma concentration of phytate (in words): increase the plasma concentration
[6]; 20 hours dialysis, plasma 300 μM phytate, dialysis liquid 5 times greater, pH 7.4
  phytate from the dialysis liquid that enters into the artificial plasma: up to 0.75%
[6]; 20 hours dialysis, plasma 300 μM phytate, dialysis liquid 5 times greater, from ratio of initial volumes and concentrations
  increase of the concentration of phytate in the artificial plasma: 140%
[7]; male, Wistar, rat, plasma, blood 24 hours after last administration, read-out: plasma level of phytate
  concentration at 24 h: 1000 ng/mL
[7]; 24-hour urine after last administration
  urinary excretion of phytate: 72 ± 10 µg
